Experimental data published in PubChem BioAssay AID179 (DTP/NCI, 2004).
Values joined by “and” are separate entries in the source; they are usually repeats but may differ in a detail not shown here. Equal entries are not always repeated. Active and inactive are the calls of the source.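 How the source made its calls: active means compounds giving half or more protection of infected cells from virus-caused growth loss, again on retest; inactive means the rest.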

Test system: CEM cells HIV-1 protection, formazan growth assay
Assay: NCI AIDS Antiviral Assay
Conditions: for IC50: measured here: growth of uninfected CEM cells
Method in brief: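 CEM (human) cells, HIV-1 infected vs uninfected, 5-point dosing, formazan growth read-out. Retest threshold 50% protection.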

| SMILES | EC50 | IC50 | outcome |
| --- | --- | --- | --- |
| CCOC(=O)C(C)S(=O)(=O)O (centres undefined) | > 200 µM | > 200 µM |  |
| NC(=O)NNCc1c(-c2ccccc2)no[n+]1[O-] | > 200 µM | > 200 µM |  |
| CO/C=C(/C#N)S(=O)(=O)/C(C#N)=C/OC | > 200 µM | > 200 µM |  |
| CC(C)(C#N)C(C)(C)SSC(C)(C)C(C)(C)C#N | > 178 µM | > 178 µM |  |
| c1ccc(-c2c(-c3cccs3)[nH]c(-c3cccs3)c2-c2ccccn2)nc1 | > 38 µM | 25.7 µM |  |
| CCOC(=O)/C(=C\c1ccc(C#N)cc1)C(C)=O | > 148 µM | 77.6 µM |  |
| O=C1OC2(O)c3ccccc3C(=O)N2N2CCCCC12 (centres undefined) | > 646 µM | > 646 µM |  |
| CCCCCCCCCc1ccc(Oc2ccc3c(c2)-c2nc-3nc3[nH]c(nc4nc(nc5[nH]c(n2)c2ccc(Oc6ccc(CCCCCCCCC)cc6)cc52)-c2cc(Oc5ccc(CCCCCCCCC)cc5)ccc2-4)c2ccc(Oc4ccc(CCCCCCCCC)cc4)cc32)cc1 | > 13.5 µM | > 13.5 µM |  |
| CCOC(=O)c1[nH]c(COC(C)=O)c2c1CCCCCCCCCC2 |  |  | inactive |
| O=C1c2cc3ccccc3cc2C2(c3ccc(Cl)cc3)NCCN12 (centres undefined) | > 200 µM | 32.4 µM |  |
| CC(C)CN(C[C@@H](O)[C@H](Cc1ccccc1)NC(=O)[C@H](CC(N)=O)NC(=O)c1ccc2ccccc2n1)C(=O)NC(C)(C)C |  | 93.3 µM | active |
| COc1cc(OC)c(OC)cc1/C=C\c1nccc2ccccc12 | > 30.9 µM | 22.4 µM |  |
| c1cc(SSc2ccncc2)ccn1 | > 200 µM | 25.1 µM |  |
| COC(=O)C(=O)C(C(=O)C(=O)Nc1ccc(OC)cc1[N+](=O)[O-])c1nc2ccc([N+](=O)[O-])cc2[nH]c1=O (centres undefined) | > 182 µM | 170 µM |  |
| CC(=O)OCC(C)(COC(C)=O)N1C(=O)C2C3c4ccccc4C(c4ccccc43)C2C1=O (centres undefined) | > 200 µM | > 200 µM |  |
| Cc1cc(C)c(C(=O)/C(=C/c2ccccc2)c2ccccc2)c(C)c1 | > 15.8 µM | > 15.8 µM |  |
| Cc1cc(O)oc(=O)c1 | > 2000 µM | > 2000 µM |  |
| COc1cccc(NC(=S)Nn2c(C)nc3ccccc3c2=O)c1 | > 105 µM | > 105 µM |  |
| Cc1cc(S(=O)(=O)N=C2N(Cc3ccccc3)CCN2Cc2ccccc2)c(S)cc1Cl | > 200 µM | > 200 µM |  |
| COC(=O)C(NC(=O)c1ccccc1)c1ccco1 (centres undefined) | > 955 µM | 479 µM |  |
| CCOC(=O)c1cc(C2CCN(Cc3ccccc3)C2=O)c(C(=O)/C=C(/C)N)[nH]1 (centres undefined) | > 200 µM | 158 µM |  |

| SMILES | EC50 | IC50 | outcome |
| --- | --- | --- | --- |
| CSc1n[nH]c(N)c1C(=O)Nc1ccc(C)cc1 | > 200 µM | 95.5 µM |  |
| CC(=O)OC[C@]12CCC3[C@@]4(C)CCCC(C)(C)C4CC[C@@]3(C)C1CC(C1=CC(=O)OC1O)O2 (some centres undefined) | > 200 µM | 0.759 µM |  |
| CN(C)C(=S)Sc1nsc(SC(=S)N(C)C)n1 | > 200 µM | > 200 µM |  |
| CCOC(=O)SC1=NC(C)=CC(C)(C)S1 | 53.7 µM | 145 µM |  |
| Nc1ccc(SSc2ccc(Nc3ccnc4cc(Cl)ccc34)cc2)cc1 | > 200 µM | 5.01 µM |  |
| Cc1nc(N)nc(N)c1N1CCN(c2ccc(C#N)cc2)CC1 | > 100 µM | > 100 µM |  |
| CCCCNC(=O)C1=C(C)NC(C)=C(C(=O)NCCCC)C1 | > 200 µM | > 200 µM |  |
| CCCCc1ccc(Nc2nc(Cl)c3c(ncn3C3CC(Oc4ccc(C)cc4)C(COc4ccc(C)cc4)O3)n2)cc1 (centres undefined) | > 200 µM | > 200 µM |  |
| CN(C)CCC=C1c2ccccc2C=Cc2ccccc21 | > 200 µM | 33.9 µM and 28.8 µM and 37.2 µM |  |
| COC(=O)/C=C(\C=C/C(=O)O)C(=O)O | > 1260 µM | 251 µM |  |
| NC1C2(CCCCCC2)NC(=O)C12CCCCCC2 (centres undefined) |  |  | inactive |
| CCOC(=O)/C(=C\c1cccc(C#N)c1)P(=O)(OCC)OCC | > 537 µM | 11 µM |  |
| CC(=O)OC1c2ccccc2C2c3ccccc3C1C2(C)C(Cl)(Cl)Cl (centres undefined) | > 13.2 µM | > 13.2 µM |  |
| Cc1ccc(S(=O)(=O)n2c3ccc(Br)cc3c3nc4ccccc4nc32)cc1 | > 100 µM | > 100 µM |  |
| COc1cccc(C2c3cc4c(cc3OC(N3CCCCC3)C2C)OCO4)c1O (centres undefined) | > 200 µM | 3.02 µM |  |
| N#CC(C#N)=C(C(C#N)C#N)C(C#N)C#N |  |  | inactive |
| O=C(CCNC(=O)OCc1ccccc1)OCCCNC(=O)OCc1ccccc1 | > 200 µM | > 200 µM |  |
| CS/C(=C(\S)c1ccccc1)c1ccccc1 |  |  | inactive |
| C=CCOC(C)n1c(C)cc(=O)n(C(C)OCC=C)c1=O (centres undefined) | > 200 µM | > 200 µM |  |
| Cc1ccc(C(=O)Nc2ccc(CP(=O)(O)O)cc2CP(=O)(O)O)cc1NC(=O)c1cccc(N)c1 | > 200 µM | > 200 µM |  |
| SC[C@@H]1COC[C@H](CS)S1 | > 95.5 µM | > 95.5 µM |  |

| SMILES | EC50 | IC50 | outcome |
| --- | --- | --- | --- |
| CC1(C)COC(c2ccccc2Cl)N1 (centres undefined) |  |  | inactive |
| CC(=O)CSc1sc(C(C)=O)c(N)c1C#N | > 200 µM | > 200 µM |  |
| CC([C@H]1CCC2C3CCC4CC5(CC[C@]4(C)C3CC[C@@]21C)c1ccccc1C(=O)N5C)N(C)C (some centres undefined) | > 8.13 µM | > 8.13 µM |  |
| N#Cc1nc(C2CCC2)oc1N | > 200 µM | > 200 µM |  |
| CCCCCCOCC(=O)O | > 200 µM | > 200 µM |  |
| C=C=[CH][Sn]([c]1ccccc1)([c]1ccccc1)[c]1ccccc1 | > 35.5 µM | 0.676 µM |  |
| CNC(=O)CN(CC(N)=O)C(N)=O | > 191 µM | > 191 µM |  |
| O=C1/C(=C\c2cccc(Oc3ccccc3)c2)S(=O)(=O)C(c2ccccc2)N1c1cccc(Cl)c1 (centres undefined) | > 200 µM | 12.9 µM |  |
| CCOP(=O)(C/C=C\Cn1cnc(C(N)=O)c1N)OCC | > 200 µM | > 200 µM |  |
| O=C(NC(C(F)(F)F)(C(F)(F)F)P(=O)(Cc1ccccc1)Cc1ccccc1)C(C(F)(F)F)C(F)(F)F |  |  | inactive |
| COc1ccccc1/C=C/C(=O)/C=C/c1ccccc1O | > 79.4 µM | 1.15 µM |  |
| CCOC(=O)C(/C(=N\NC(=O)OC)C(=O)Nc1cc(OC)ccc1OC)c1cnc2ccccc2n1 (centres undefined) | 81.3 µM | 138 µM |  |
| CCOC(=O)/C(O)=C(\C=N\C(=S)Nc1ccc(Cl)c(Cl)c1)C(=O)OCC | > 200 µM | > 200 µM |  |
| CC(C)c1cccc(C(C)C)c1NC(=S)N=Nc1cc(C(C)(C)C)c(O)c(C(C)(C)C)c1 | > 5.75 µM | > 5.75 µM |  |
| O=C1c2cccn2-c2ccccc2OC1(CC1CC1)c1ccccc1 (centres undefined) | > 200 µM | 11.5 µM |  |
| O=C(NNc1cn[nH]c(=O)c1Cl)/C(=C/c1ccc2c(c1)OCO2)NC(=O)c1ccccc1 | > 200 µM | 162 µM |  |
| COC(=O)C(=O)C(C(=O)C(=O)Nc1ccc(Cl)cc1Cl)c1nc2ccc(Cl)cc2[nH]c1=O (centres undefined) | > 38 µM | > 38 µM |  |
| CCCCc1c2c(nc3c1CCc1cc4c(nc1-3)-c1nc3c(c(CCCC)c1CC4)CCC/C3=C\c1ccccc1)/C(=C/c1ccccc1)CCC2 | > 5.5 µM | > 5.5 µM |  |
| COc1cccc(NC(=O)CC(=O)n2nc(C)c(N=Nc3ccccc3F)c2C)c1 |  |  | inactive |
| COc1ccc(C2=C(N)c3ccccc3C2=O)cc1 | > 200 µM | > 200 µM |  |
| N#Cc1ncc(C[P+](c2ccccc2)(c2ccccc2)c2ccccc2)nc1N | > 200 µM | 170 µM |  |
